From patent US12178840B2, “Method and compositions comprising a CT20 peptide” (UNIVERSITY OF CENTRAL FLORIDA RESEARCH FOUNDATION, INC., priority 2014, dated 2024)
Residues, ends and D or L forms follow the SMILES beside them.

How the values were obtained:
[1] = tested on: MDA-MB-231 subcutaneous tumors; test: Tumor growth in mice bearing subcutaneous MDA-MB-231 tumors, nanoparticle treatment; format: in vivo
Description: Referring to FIG. 2A, the graph summarizes the results with FOL-NPs that were empty, contained Doxorubicin (DOX), or CT20, and are compared to COOH-NPs with CT20. Referring to FIG. 2B, representative ultrasound data is shown from mice treated with PBS or FOL-CT20-NPs. Arrows indicate treatment times. *p<0.05.
To test the ability of CT20 to inhibit tumor growth, HBPE-NPs were modified with folate (FOL) to target the folate receptor (FR) (Boohaker, R. J., et al. (2012) Mol. Pharm. 7, 2080-2093; Lee, M. W., et al. (2014) Cell Death Dis. 5). FR targeting enabled concentration of the HBPE-NPs in murine tumors during systemic delivery. FIG. 2 is a representative animal experiment in which MDA-MB-231 cells were used to form subcutaneous tumors. Mice (n=5) were treated with two subcutaneous injections of nanoparticles (2 mg/kg/dose) over a five week period. […] Referring to FIG. 2B, representative ultrasound data is shown from mice treated with PBS or FOL-CT20-NPs. Arrows indicate treatment times. *p<0.05.

MDA-MB-231 cells = test: Timeline of biological effects of CT20 in HBPE-NPs in breast cancer cells; format: cell-based, human; settings: CT20 (˜3.4 nM) in HBPE-NPs
Procedure: CT20 peptide impaired mitochondrial movement (mitotracker green) (A) leading to clustering (JC-1 probe) (B) and reduced F-actin (green) polymerization (nucleus, DAPI, blue (C). Referring to FIG. 3D, the viability of cells was determined by measuring membrane permeability (Sytox) and membrane asymmetry (violet ratiometric dye). Gates are: N, necrotic; V, viable; A, apoptotic. Percentages are V (black) and N+A (red). Referring to FIG. 3E, by 6 hours, cells detach from substrate (fibronectin). Referring to FIG. 3F, membrane levels of β1 integrin decrease. Referring to FIG. 3G-3I, post-cell detachment events include caspase activation, autophagy, and increased ROS production. Referring to FIG. 3J, apoptosis/anoikis was detected between 24-48 hours as described for 3D.
(§1) This triggered hyperpolarization of the mitochondrial membrane and fusion-like aggregation (FIG. 3B) that impaired mitochondrial redistribution, ATP production, and F-actin polymerization (FIG. 3C). Cells remained viable during these “initiating events” (FIG. 3D). However, at 6 hours post-CT20 treatment, cells began detaching from the substrate (fibronectin) (FIG. 3E). This was preceded by decreased expression of integrins (β1 integrin is shown; FIG. 3F). By 24 hours post-CT20 treatment, “effector events” caused by peptide-induced detachment were detected, including the activation of caspases (FIG. 3G), the induction of autophagy (FIG. 3H), and increased ROS production (FIG. 3I). Cell death (anoikis), indicated by membrane asymmetry, was detected in cancer cells by 48 hours (FIG. 3J).

MCF-10A cells = test: Biological effects of CT20 in HBPE-NPs in normal control epithelial cells; format: cell-based, human; settings: CT20 (˜3.4 nM) in HBPE-NPs
Procedure: as §1

MDA-MB-436 cells = format: cell-based, human; settings: 75 ug/mL, time course
Procedure: Measurement of cell viability: Cells at 60% confluency were treated with CT20p at a dose of 75 ug/mL for varying lengths of time. Following treatment, cells were collected and stained with Sytox AADvanced and F2N12S Violet Ratiometric Apoptosis kit (Invitrogen). Data was acquired by flow cytometry on a FACS Canto (BD Biosciences), and analyzed with FCSExpress software (DeNovo).
The cytotoxicity of CT20p to the cell lines was also assessed. To do this, cells were treated with the effective dose of CT20p in a time course-experiment, and membrane symmetry and permeability were examined by flow cytometry (FIG. 5B). […] BT-549 cells, on the other hand, were resistant to the effects of the peptide.

[2] = tested on: TNBC cell lines and MCF-10A; test: Metabolic stress tests (Seahorse, oxygen consumption and extracellular acidification); format: cell-based, human; settings: 75 ug/mL for 24 hours before the assay
Procedure: Measurement of oxygen consumption and extracellular acidification: 24-well culture plates for use with the Seahorse XFe24 analyzer were coated with Cell-Tak (BD Bioscience) at 3.5 ug/cm2. Cells were then seeded at 60,000 cells/well and allowed to adhere overnight. Measurements of oxygen consumption rate and extracellular acidification rate were obtained using a Seahorse XFe 24 analyzer (Seahorse Bioscience). To obtain mitochondrial metabolic profiles, injections of oligomycin (1 uM), FCCP (0.3 uM), rotenone (0.1 uM), and antimycin A (2 uM) were performed. The mitochondrial coupling efficiency was calculated as: [1−(minimum oligomycin response/final basal measurement)]×100. To obtain glycolytic metabolic profiles, injections of glucose (10 mM), oligomycin (1 uM), and 2-deoxy-D-glucose (100 mM) were performed. Glycolytic reserve capacity was calculated as: maximum oligomycin response−maximum glucose response. […] Metabolic capacity was defined as the maximum recorded measurement in both mitochondrial and glycolytic contexts. CT20p-treated results were calculated as a percentage of untreated results.
The effect of CT20p on cellular metabolism was also examined by pre-treating the cells with CT20p prior to running metabolic stress tests. Glycolytic capacity (FIG. 6C) and respiration capacity (FIG. 6F) were calculated for treated cells with respect to untreated cells.

With `CC[C@H](C)[C@H](NC(=O)[C@@H](NC(=O)[C@H](CC(C)C)NC(=O)[C@H](CO)NC(=O)[C@H](C)NC(=O)[C@@H](NC(=O)[C@H](CC(C)C)NC(=O)[C@@H](NC(=O)CNC(=O)[C@H](C)NC(=O)[C@@H](NC(=O)[C@H](Cc1ccccc1)NC(=O)[C@@H](NC(=O)[C@@H](NC(=O)[C@@H](NC(C)=O)C(C)C)[C@@H](C)O)[C@@H](C)CC)C(C)C)C(C)C)[C@@H](C)O)[C@@H](C)O)C(=O)N[C@@H](Cc1c[nH]c2ccccc12)C(=O)N[C@@H](CCCCN)C(=O)N[C@@H](CCCCN)C(=O)N[C@@H](CCSC)C(=O)NCC(N)=O` [CT20] (Ac-VTIFVAGVLTASLTIWKKMG-NH2) the “Effectiveness compared with Doxorubicin” value ([1]; CT20 delivered in HBPE-NPs) was “as effective, if not more, than drugs such as Doxorubicin”, the “Inhibition of tumor growth” value ([1]; two subcutaneous injections of nanoparticles (2 mg/kg/dose) over five weeks) was “caused tumor regression” and the “Movement of mitochondria compared to controls” value (MDA-MB-231 cells) was “decreased four-fold”. For the same compound, the “Time by which cell death (anoikis, membrane asymmetry) was detected” value (MDA-MB-231 cells) was no more than 48 h, the “Time at which cells began detaching from the substrate (fibronectin)” value (MDA-MB-231 cells; post-CT20 treatment) was 6 h and the “Time by which effector events (caspase activation, autophagy, increased ROS) were detected” value (MDA-MB-231 cells; post-CT20 treatment) was no more than 24 h. For the same compound, the “Cytoskeletal impairment and cell death in control epithelial cell line” value (MCF-10A cells) was “not observed”, the “Cytoskeletal impairment and cell death in control epithelial cell line” value (MCF-10A cells; listed as CT20 peptide) was “minimal cell death” and the “Earliest time at which characteristics of cell death were displayed” value (MDA-MB-436 cells) was 6 h. The “Metabolic responses (glycolytic capacity, respiration capacity) that could explain the cytotoxicity pattern” value [2] was “None of the cell lines displayed metabolic responses”.
